Measurements reported in patent US5854204A, “Aβ peptides that modulate β-amyloid aggregation” (priority 1996, dated 1998).

Key:
natural β-AP (β-AP1-40) = target: T1, natural β-AP (β-AP1-40) (Homo sapiens, UniProt P05067); experiment: Optical density (turbidity, A400 nm) aggregation assay; assay type: biochemical
T1 construct: Natural β-AP (β-AP1-40) was obtained commercially from Bachem (Torrance, Calif.); purchased Bachem (Torrance, Calif.)
Procedure: In one assay, β-AP aggregation was measured by determining the increase in turbidity of a solution of natural β-AP over time in the absence or presence of various concentrations of the modulator. Turbidity of the solution was quantitated by determining the optical density at 400 nm (A400 nm) of the solution over time.
The aggregation of natural β-AP in the absence of modulator was determined as follows. β-AP1-40 was dissolved in hexafluoro isopropanol (HFIP; Aldrich Chemical Co., Inc.) at 2 mg/ml. Aliquots of the HFIP solution (87 μl) were transferred to individual 10 mm×75 mm test tubes. A stream of argon gas was passed through each tube to evaporate the HFIP. To the resulting thin film of peptide, dimethylsulfoxide (DMSO; Aldrich Chemical Co., Inc.) (25 μl) was added to dissolve the peptide. A 2 mm×7 mm TEFLON™-coated magnetic stir bar was added to each tube. Buffer (475 μL of 100 mM NaCl, 10 mM sodium phosphate, pH 7.4) was added to the DMSO solution with stirring. The resulting mixture was stirred continuously and the optical density was monitored at 400 nm to observe the formation of insoluble peptide aggregates.
Alternatively, β-AP1-40 was dissolved in DMSO as described above at 1.6 mM (6.9 mg/ml) and aliquots (25 μl) were added to stirred buffer (475 μl), followed by monitoring of absorbance at 400 nm. […]

β-AP1-40 = target: T2, β-AP1-40 (Homo sapiens, UniProt P05067); experiment: Static aggregation assay (SDS-PAGE); assay type: biochemical
T2 construct: Natural β-AP (β-AP1-40) was obtained commercially from Bachem (Torrance, Calif.); purchased Bachem (Torrance, Calif.)
T2 sequence (P05067 672-711): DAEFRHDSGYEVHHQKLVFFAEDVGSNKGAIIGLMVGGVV
Procedure: In a third assay, β-AP aggregation was measured by visualization of the peptide aggregates using SDS-polyacrylamide gel electrophoresis (SDS-PAGE). In this assay, β-AP solutions were allowed to aggregate over a period of time and then aliquots of the reaction were run on a standard SDS-PAGE gel. Typical solution conditions were 200 μM of β-AP1-40 in PBS at 37° C. for 8 days or 200 μM β-AP1-40 in 0.1M sodium acetate at 37° C. for 3 days. The peptide aggregates were visualized by Coomassie blue staining of the gel or, for β-AP solutions that included a biotinylated β-AP modulator, by western blotting of a filter prepared from the gel with a streptavidin-peroxidase probe, followed by a standard peroxidase assay. The β-AP aggregates are identifiable as high molecular weight, low mobility bands on the gel, which are readily distinguishable from the low molecular weight, high mobility β-AP monomer or dimer bands.

Aβ1-40 [1] = target: T3, Aβ1-40 (Homo sapiens, UniProt P05067); experiment: biochemical; details: read-out: % Inucl'n (percent reduction in maximum turbidity)
T3 sequence (P05067 672-711): as above
Source text: (§1) The nucleation assay is employed to determine the ability of test compounds to alter (e.g. inhibit) the early events in formation of β-AP fibers from monomeric β-AP. […] The time delay before polymerization of β-AP monomer can be quantified as well as the extent of formation of insoluble fiber by light scattering (turbidity). Polymerization reaches equilibrium when the maximum turbidity reaches a plateau. […] The threshold of sensitivity for the measurement of turbidity is in the range of 15-20 μM β-AP. […] This assay can be performed using stirring or shaking to accelerate polymerization, thereby increasing the speed of the assay. Moreover the assay can be adapted to a 96-well plate format to screen multiple compounds.
(§2) HFIP-solubilized peptide is sonicated in a waterbath sonicator for 5 min at highest setting, then evaporated to dryness under a stream of argon. […] Test compounds are dissolved in DMSO at a 100× concentration. […] Ten microliters of the mixture is then added to the bottom of a well of a Corning Costar ultra low binding 96-well plate (Corning Costar, Cambridge Mass.; cat. No. 2500). […] The plate is then returned to the shaker and shaken continuously for 5 hours. Turbidity readings are taken at 15 minute intervals.
(§3) Accordingly a fold increase in lag time of 1.0 indicates no change in lag time, whereas numbers >1.0 indicate an increase in lag time. The "% inhibition of plateau", which is a measure of the ability of the compound to decrease the total amount of aggregation, refers to the reduction of the final turbidity in the presence of the test compound expressed as a percent of the control without the test compound.

Aβ1-40 [2] = target: T3, Aβ1-40; experiment: Seeded extension assay (thioflavin T fluorescence); assay type: biochemical; set-up: Natural β-AP (β-AP1-40) was obtained commercially from Bachem (Torrance, Calif.); purchased Bachem (Torrance, Calif.); details: Table V; 25 mole % inhibitor
Procedure: The seeded extension assay can be employed to measure the rate of Aβ fiber formed in a solution of Aβ monomer following addition of polymeric Aβ fiber "seed". The ability of test compounds to prevent further deposition of monomeric Aβ to previously deposited amyloid is determined using a direct indicator of β-sheet formation using fluorescence. In contrast with the nucleation assay, the addition of seed provides immediate nucleation and continued growth of preformed fibrils without the need for continuous mixing, and thus results in the absence of a lag time before polymerization starts. Since this assay uses static polymerization conditions, the activity of positive compounds in the nucleation assay can be confirmed in this second assay under different conditions and with an additional probe of amyloid structure.
Samples of the solution are then diluted in thioflavin T (Th-T). The polymer-specific association of Th-T with Aβ produces a fluorescent complex that allows the measurement of the extent of fibril formation (Levine, H. (1993) Protein Science 2:404-410). In particular, association of Th-T with aggregated β-AP, but not monomeric or loosely associated β-AP, gives rise to a new excitation (ex) maximum at 450 nm and an enhanced emission (em) at 482 nm, compared to the 385 nm (ex) and 445 nm (em) for the free dye. Small aliquots of the polymerization mixture contain sufficient fibril to be mixed with Th-T to allow the monitoring of the reaction mixture by repeated sampling. A linear growth curve is observed in the presence of excess monomer. The formation of thioflavin T responsive β-sheet fibrils parallels the increase in turbidity observed using the nucleation assay.
To prepare the stock seed, 1 ml of the Aβ monomer preparation, is incubated for approximately 8 days at 37° C. and sheared sequentially through an 18, 23, 26 and 30 gauge needle 25, 25, 50, and 100 times respectively. 2 μl samples of the sheared material is taken for fluorescence measurements after every 50 passes through the 30 gauge needle until the fluorescence units (FU) plateau (approx. 100-150×). Test compounds are prepared by dissolving an appropriate amount of test compound in 1× PBS to a final concentration of 1 mM (10× stock). If insoluble, the compound is dissolved in 1/10 volume of DMSO and diluted in 1× PBS to 1 mM. A further 1/10 dilution is also prepared to test each candidate at both 100 μM and 10 μM.
To perform the seeded extension assay, each sample is set up with 50 μl of 200 μM monomer, 125 FU sheared seed (a variable quantity dependent on the batch of seed, routinely 3-6 μl) and 10 μl of 10× modulator solution. The sample volume is then adjusted to a final volume of 100 μl with 1× PBS. Two concentrations of each modulator typically are tested: 100 μM and 10 μM, equivalent to a 1:1 and a 1:10 molar ratio of monomer to modulator. The controls include an unseeded reaction to confirm that the fresh monomer contains no seed, and a seeded reaction in the absence of any modulators, as a reference to compare against candidate modulators. The assay is incubated at 37° C. for 6 h, taking 2 μl samples hourly for fluorescence measurements. To measure fluorescence, a 2 μl sample of Aβ is added to 400 μl of Thioflavin-T solution (50 mM Potassium Phosphate […] pH 7.5). The samples are vortexed and the fluorescence is read in a 0.5 ml micro quartz cuvette at EX 450 nm and EM 482 nm (Hitachi 4500 Fluorimeter).
The modulators were evaluated in the nucleation and seeded extension assays described in Example 6 and the results are summarized below in Table V. The change in lag time (ΔLag) is presented as the ratio of the lag time observed in the presence of the test compound to the lag time of the control. […] Inhibition (% Inucl'n) is listed as the percent reduction in the maximum observed turbidity in the control at the end of the assay time period. […]

Aβ1-40 [3] = target: T3, Aβ1-40; details: for ΔLag (ratio of lag time with test compound to lag time of control): Table V, 100 mole % inhibitor relative to Aβ1-40
Source text: as §1, §2, §3

Aβ peptide = Aβ peptide (Homo sapiens, UniProt P05067); details: Camilleri et al. (1994); cited from earlier work
Sequence of Aβ peptide (P05067 672-711 limits assumed): as the sequence (P05067 672-711) above
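For Fold Increase in Lag Time in this document: Aβ nucleation assay tracking fiber polymerization from monomer by turbidity (light scattering), shaken continuously in 96-well plates, read every 15 min over 5 h, compared with compound-free control.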
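For ΔLag (ratio of lag time with test compound to lag time of control) in this document: Aβ nucleation assay tracking fiber polymerization from monomer by turbidity (light scattering), shaken continuously in 96-well plates, read every 15 min over 5 h, compared with compound-free control.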

T1 sequence (P05067 672-711): as above

| Compound | inhibition at 100 % (Aβ1-40 [1]) [%] | % Iext'n (percent reduction of thioflavin-T fluorescence) (Aβ1-40 [2]) [%] | ΔLag (ratio of lag time with test compound to lag time of control) (Aβ1-40 [3]) | other results |
| --- | --- | --- | --- | --- |
| N-biotinyl-βAP1-40 | – | – | – | aggregation of natural β-AP1-40 (turbidity, optical density at 400 nm) (natural β-AP (β-AP1-40); modulator at 1% in the natural β-AP1-40 solution): markedly inhibited; aggregation of natural β-AP1-40 (turbidity, optical density at 400 nm) (natural β-AP (β-AP1-40); modulator at 5% in the natural β-AP1-40 solution): similarly inhibited aggregation; aggregation of mixture with natural β-AP1-40 (high molecular weight aggregates on SDS-PAGE) (β-AP1-40; mixture of natural β-AP1-40 and modulator): reduced amounts of the peptide mixture associated into high molecular weight aggregates; self-aggregation of the modulator (high molecular weight aggregates on SDS-PAGE) (β-AP1-40; modulator alone, no natural β-AP): few if any high molecular weight aggregates were observed |
| CC(C)C[C@H](NC(=O)[C@@H](N)CCCCN)C(=O)N[C@H](C(=O)N[C@@H](Cc1ccccc1)C(=O)N[C@@H](Cc1ccccc1)C(=O)O)C(C)C [PPI-377, Aβ16-20] | 0 | 8 | 1.1 | Fold Increase in Lag Time (Aβ1-40 [3]; Table IV, 100 mole %): ~ 1 fold |
| CC(C)C[C@H](N)C(=O)N[C@H](C(=O)N[C@@H](Cc1ccccc1)C(=O)N[C@@H](Cc1ccccc1)C(=O)N[C@@H](C)C(=O)O)C(C)C [PPI-386] | 15 | 11 | 1.0 | – |
| OC[C@H]1O[C@@H]2O[C@H]3[C@H](O)[C@@H](O)[C@@H](O[C@H]4[C@H](O)[C@@H](O)[C@@H](O[C@H]5[C@H](O)[C@@H](O)[C@@H](O[C@H]6[C@H](O)[C@@H](O)[C@@H](O[C@H]7[C@H](O)[C@@H](O)[C@@H](O[C@H]8[C@H](O)[C@@H](O)[C@@H](O[C@H]1[C@H](O)[C@H]2O)O[C@@H]8CO)O[C@@H]7CO)O[C@@H]6CO)O[C@@H]5CO)O[C@@H]4CO)O[C@@H]3CO [β-cyclodextrin] | – | – | – | fibril formation in vitro (Aβ peptide): inhibit fibril formation in vitro |
